Assay: Inhibition of SMARCA2/SMARCC1/SMARCC2/SMARCB1 (unknown origin) using ATP/nucleosome mix as substrate preincubated for 30 mins followed by substrate addition and measured after 180 mins by ADP-Glo assay
Parameters: species or system Homo sapiens

Row | SMILES | IC50 [nM]
1 | C[C@@H]1CN(c2cccc(-c3ccc4cnc(CC(=O)N[C@@H]5C[C@@H](F)CN(S(=O)(=O)C(F)F)C5)cc4n3)n2)C[C@H](C)O1 | 0.5
2 | C[C@@H]1CN(c2cccc(-c3ccc4cnc(CC(=O)N[C@@H]5CN(S(=O)(=O)C(F)F)CC(F)(F)C5)cc4n3)n2)C[C@H](C)O1 | 0.43

Results, then the compound that gave them:

Row | IC50 [nM] | SMILES
3 | 0.45 | C[C@@H]1CN(c2cccc(-c3ccc4cnc(CC(=O)Nc5cccc(S(=O)(=O)C(F)F)c5)cc4n3)n2)C[C@H](C)O1
4 | 0.33 | C[C@@H]1CN(c2cccc(-c3ccc4cnc(CC(=O)N[C@@H]5C[C@H](C)N(S(=O)(=O)C(F)F)C5)cc4c3)n2)C[C@H](C)O1
5 | 0.53 | C[C@@H]1CN(c2cccc(-c3ccc4cnc(CC(=O)N[C@@H]5CCN(S(=O)(=O)C(F)F)C5)cc4c3)n2)C[C@H](C)O1
6 | 0.48 | Cc1ccc(NC(=O)Cc2cc3cc(-c4cccc(N5C[C@@H](C)O[C@@H](C)C5)n4)ccc3cn2)cc1S(C)(=O)=O
